According to patent US5091169A, “Dipyridoxyl phosphate NMRI contrast agent compositions” (priority 1989, dated 1992):
Like-named read-outs stand apart in the source and are kept apart here.

Assays:
[1] = Potentiometric titration of DPDP (ligand proton titration); assay type: physicochemical; settings: pH of 3 and above
Source text: The compound DPDP was studied potentiometrically from pH 11.2 to 2.0. Data sets were collected on a custom-built automatic potentiometric titration apparatus composed of a METROHM 655 DOSIMAT automatic buret, a FISHER ACCUMET pH meter with a CORNING calomel combination electrode, a custom-blown water jacketed titration cell, a BRINKMAN LAUDA K-2/R constant temperature bath and a COMMODORE 64 computer. The BASIC computer program TITRATOR (Harris, W. et al, J.Am.Chem.Soc. 101:6534 (1979)) runs the apparatus. Data analysis was performed on an IBM-AT computer using the least squares program, BETA (Harris, W. et al, supra), and the data analysis program, HANDNBAR (Harris, W. et al, supra). The titrants were standardized by phenophthalein titration as follows: KOH was calibrated against potassium hydrogen phthalate (a primary standard), and HCl solutions were calibrated against the KOH standard. The Mn(II)Cl2 solution was standardized with an EDTA titration using Erichrome Black T as the indicator. All solutions were made from distilled, deionized water that was further purified on a MILLI-Q cartridge system, degassed, and then kept under an atmosphere of argon which had been scrubbed for CO2 and O2. Additions of EDTA and Mn(II) solutions were performed using calibrated GILMOT pipets. […]

[2] = cited from earlier work
selected body organs [3] = settings: for T1, Bile / T1, Heart / T1, Liver / T1, Renal cortex / T1, Renal medulla: 0.01 mmol/kg i.v., 10 MHz
Description: Each of seven rabbits was injected intravenously with 0.01 mmol/kg of the solution obtained in Example 7. The rabbits were sacrificed at 0.25, 0.50, 1.0, 2.0, 4, 6 and 24 hours post-injection, and the proton relation values of selected body organs were measured with NMR, in vitro, at 10 MHz.

[4] = Source text: The compound DPDP was studied potentiometrically from pH 11.2 to 2.0. Data sets were collected on a custom-built automatic potentiometric titration apparatus composed of a METROHM 655 DOSIMAT automatic buret, a FISHER ACCUMET pH meter with a CORNING calomel combination electrode, a custom-blown water jacketed titration cell, a BRINKMAN LAUDA K-2/R constant temperature bath and a COMMODORE 64 computer. The BASIC computer program TITRATOR (Harris, W. et al, J.Am.Chem.Soc. 101:6534 (1979)) runs the apparatus. Data analysis was performed on an IBM-AT computer using the least squares program, BETA (Harris, W. et al, supra), and the data analysis program, HANDNBAR (Harris, W. et al, supra). The titrants were standardized by phenophthalein titration as follows: KOH was calibrated against potassium hydrogen phthalate (a primary standard), and HCl solutions were calibrated against the KOH standard. The Mn(II)Cl2 solution was standardized with an EDTA titration using Erichrome Black T as the indicator. All solutions were made from distilled, deionized water that was further purified on a MILLI-Q cartridge system, degassed, and then kept under an atmosphere of argon which had been scrubbed for CO2 and O2. Additions of EDTA and Mn(II) solutions were performed using calibrated GILMOT pipets. The electrode was calibrated in concentration units with degassed solutions of p[H+]=2.291 and 1.078 at 0.1 M ionic strength.
The metal complex titration was performed by adding 152.2 mg (0.2383 mmoles) to 74.6 ml of a high pH aqueous solution. 2.07 ml of a 0.1152 M Mn(II) solution (0.2386 mmoles) were added. The complex was then titrated to low pH with 1.002 N HCl.

[5] = 10 MHz, 37° C
Description: The relations of protons present in water and plasma exposed to the chelate product of Example 7 was tested by NMR for relaxities, in msec, at 10 MHz, 37° C.

selected body organs [6] = settings: for T1, Blood / T1, Brain / T1, Large Int. / T1, Liver / T1, Renal Cort. / T1, Renal Med. / T1, Small Int. / T1, Urine / T2, Brain / T2, Large Int. / T2, Liver / T2, Renal Cort. / T2, Renal Med. / T2, Small Int. / T1, Fat / T1, Heart / T1, Lung / T1, Skel. Musc. / T1, Stom. / T2, Fat / T2, Heart / T2, Lung / T2, Skel. Musc. / T2, Stom. / T2, Urine: 30 min, 10 MHz
Description: Each of four rabbits was injected intravenously with one of the following amounts of the solution obtained in Example 7: 0.01 mmoles/kg, 0.05 mmoles/kg, 0.10 mmoles/kg and 0.20 mmoles/kg. The rabbits were sacrificed 30 min post injection, and the proton relaxation values of selected body organs were measured with NMR, in vitro at 10 MHz.

## Cc1ncc(COP(=O)(O)O)c(CN(CCN(CC(=O)O)Cc2c(COP(=O)(O)O)cnc(C)c2O)CC(=O)O)c1O [DPDP, N,N'-bis(3-hydroxy-2-methyl-5-phosphonomethyl-4-pyridylmethyl)ethylenediamine-N,N'-diacetic acid]
[1]
  ligand charge / deprotonation state: anionic and possesses deprotonated metal binding sites

## O=C(O)CN(CCN(CC(=O)O)Cc1ccccc1O)Cc1ccccc1O [HBED, N,N'-bis(2-hydroxybenzyl)ethylenediamine-N,N'-diacetic acid]
[2]; L'Eplathenier et al titrations
  oxidation of manganese(II) during titration: the manganese(II) ion was oxidized by the phenolic ligand

## Cc1ncc(COP(=O)(O)O)c(CN(CCN(CC(=O)[O-])Cc2c(COP(=O)(O)O)cnc(C)c2O)CC(=O)[O-])c1O.[Mn+2] [Mn(DPDP), manganese chelate complex of N,N'-bis-(pyridoxal-5-phosphate)ethylenediamine-N,N'-diacetic acid]
Selected body organs [3]; 0.25 hr
  T1, Bile: 160 ms
  T1, Heart: 231 ms
  T1, Liver: 68 ms
  T1, Renal cortex: 202 ms
  T1, Renal medulla: 192 ms
Selected body organs [3]; 0.50 hr
  T1, Bile: 46 ms
  T1, Heart: 352 ms
  T1, Liver: 76 ms
  T1, Renal cortex: 191 ms
  T1, Renal medulla: 231 ms
Selected body organs [3]; 1.0 hr
  T1, Bile: 25 ms
  T1, Heart: 381 ms
  T1, Liver: 48 ms
  T1, Renal cortex: 229 ms
  T1, Renal medulla: 236 ms
Selected body organs [3]; 2 hr
  T1, Bile: 21 ms
  T1, Heart: 507 ms
  T1, Liver: 48 ms
  T1, Renal cortex: 192 ms
  T1, Renal medulla: 310 ms
Selected body organs [3]; 4 hr
  T1, Bile: < 1 ms
  T1, Heart: 522 ms
  T1, Liver: 145 ms
  T1, Renal cortex: 210 ms
  T1, Renal medulla: 340 ms
Selected body organs [3]; 6 hr
  T1, Bile: 14 ms
  T1, Heart: 663 ms
  T1, Liver: 209 ms
  T1, Renal cortex: 239 ms
  T1, Renal medulla: 375 ms
Selected body organs [3]; 24 hr
  T1, Bile: 107 ms
  T1, Heart: 660 ms
  T1, Liver: 315 ms
  T1, Renal cortex: 328 ms
  T1, Renal medulla: 563 ms
Selected body organs [3]; liver, renal cortex, renal medulla and heart
  uptake and clearance: rapid uptake and clearance of Mn(DPDP) in the liver, renal cortex, renal medulla and heart
Selected body organs [3]; post-injection, i.v.
  clearance time through renal and hepatobiliary systems: 6 to 8 h
[4]; Mn(II) chelate, titrated from pH 11.1 to 2.0
  log Kf (formation constant): 14.8
[4]; physiological pH
  binding of Mn(II) ion: quantitatively bound to the chelating agent
[4]; titration data
  pH below which chelate begins to demetallate: below 4.5
[5]; 0.000039 Molar
  T1 (Plasma): 1103 ms
[5]; 0.000078 Molar
  T1 (Plasma): 995 ms
[5]; 0.000156 Molar
  T1 (Plasma): 856 ms
  T1 (Water): 1470 ms
[5]; 0.000312 Molar
  T1 (Plasma): 624 ms
  T1 (Water): 1083 ms
[5]; 0.000625 Molar
  T1 (Plasma): 398 ms
  T1 (Water): 639 ms
[5]; 0.00125 Molar
  T1 (Plasma): 240 ms
  T1 (Water): 332 ms
[5]; 0.0025 Molar
  T1 (Plasma): 139 ms
  T1 (Water): 175 ms
  T2 (Plasma): 124 ms
[5]; 0.005 Molar
  T1 (Plasma): 74 ms
  T1 (Water): 100 ms
  T2 (Plasma): 68 ms
  T2 (Water): 86 ms
[5]; 0.010 Molar
  T1 (Plasma): 40 ms
  T1 (Water): 43 ms
  T2 (Plasma): 34 ms
  T2 (Water): 41 ms
Selected body organs [6]; 0.01 mmol/kg i.v.
  T1, Blood: 844 ms
  T1, Brain: 554 ms
  T1, Large Int.: 283 ms
  T1, Liver: 176 ms
  T1, Renal Cort.: 298 ms
  T1, Renal Med.: 502 ms
  T1, Small Int.: 324 ms
  T1, Urine: 821 ms
  T2, Brain: 76 ms
  T2, Large Int.: 64 ms
  T2, Liver: 39 ms
  T2, Renal Cort.: 65 ms
  T2, Renal Med.: 99 ms
  T2, Small Int.: 72 ms
Selected body organs [6]; 0.05 mmol/kg i.v.
  T1, Blood: 613 ms
  T1, Brain: 496 ms
  T1, Fat: 200 ms
  T1, Heart: 353 ms
  T1, Large Int.: 365 ms
  T1, Liver: 76 ms
  T1, Lung: 575 ms
  T1, Renal Cort.: 210 ms
  T1, Renal Med.: 223 ms
  T1, Skel. Musc.: 494 ms
  T1, Small Int.: 237 ms
  T1, Stom.: 245 ms
  T1, Urine: 150 ms
  T2, Brain: 82 ms
  T2, Fat: 139 ms
  T2, Heart: 54 ms
  T2, Large Int.: 83 ms
  T2, Liver: 31 ms
  T2, Lung: 113 ms
  T2, Renal Cort.: 57 ms
  T2, Renal Med.: 57 ms
  T2, Skel. Musc.: 47 ms
  T2, Small Int.: 52 ms
  T2, Stom.: 41 ms
  T2, Urine: 136 ms
Selected body organs [6]; 0.10 mmol/kg i.v.
  T1, Blood: 506 ms
  T1, Brain: 590 ms
  T1, Fat: 183 ms
  T1, Heart: 300 ms
  T1, Large Int.: 290 ms
  T1, Liver: 65 ms
  T1, Lung: 435 ms
  T1, Renal Cort.: 188 ms
  T1, Renal Med.: 209 ms
  T1, Skel. Musc.: 425 ms
  T1, Small Int.: 218 ms
  T1, Stom.: 242 ms
  T1, Urine: 90 ms
  T2, Brain: 90 ms
  T2, Fat: 115 ms
  T2, Heart: 51 ms
  T2, Large Int.: 57 ms
  T2, Liver: 23 ms
  T2, Lung: 61 ms
  T2, Renal Cort.: 55 ms
  T2, Renal Med.: 48 ms
  T2, Skel. Musc.: 31 ms
  T2, Small Int.: 46 ms
  T2, Stom.: 52 ms
  T2, Urine: 75 ms
Selected body organs [6]; 0.20 mmol/kg i.v.
  T1, Blood: 411 ms
  T1, Brain: 352 ms
  T1, Fat: 192 ms
  T1, Heart: 205 ms
  T1, Large Int.: 256 ms
  T1, Liver: 68 ms
  T1, Lung: 376 ms
  T1, Renal Cort.: 143 ms
  T1, Renal Med.: 127 ms
  T1, Skel. Musc.: 232 ms
  T1, Small Int.: 131 ms
  T1, Stom.: 271 ms
  T2, Brain: 66 ms
  T2, Heart: 47 ms
  T2, Large Int.: 74 ms
  T2, Liver: 25 ms
  T2, Lung: 63 ms
  T2, Renal Cort.: 53 ms
  T2, Renal Med.: 60 ms
  T2, Skel. Musc.: 31 ms
  T2, Small Int.: 46 ms
  T2, Stom.: 53 ms
Selected body organs [6]; dose range studied
  heart uptake vs dose: the heart continues to uptake Mn(DPDP) through the dose range studied
Selected body organs [6]; heart, liver and kidneys, i.v.
  uptake in organs: rapid uptake of the Mn(DPDP) in the heart, liver and kidneys
Selected body organs [6]; higher doses
  brain uptake: uptake by the brain was observed at higher doses
Selected body organs [6]; i.v., 30 min post injection
  saturating dose, liver and kidneys: 0.10 mmol/kg
blood-brain barrier; defect in blood-brain barrier
  collection in extravascular space: large amounts of the complex of Mn(DPDP) collect in the extravascular space
blood-brain barrier; not observable without Mn(DPDP) as contrast agent
  observation of blood-brain barrier defects by NMRI: such defects were observed by NMRI tomography

## O=C([O-])C(NCCNC(C(=O)[O-])c1ccccc1O)c1ccccc1O.[Mn+2] (stereo not shown) [Mn(II) chelates of EHPG]
[2]; above pH 5, Frost et al
  stability of manganese(II) complex: irreversibly oxidized

## O=C([O-])CN(CCN(CC(=O)[O-])Cc1ccccc1O)Cc1ccccc1O.[Mn+2] [manganese chelate of N,N'-bis(2-hydroxybenzyl)ethylenediamine-N,N'-diacetic acid]
[2]; manganese chelate, reported by L'Eplathenier et al
  log Kf (formation constant): 14.8
